Tests used:
CTG-2264 tumors = assay: Combination efficacy study of anti-GD2 ADC and ATR inhibitor in osteosarcoma PDX model CTG-2264; format: in vivo, athymic nude mice (nu/nu); settings: Day 23; Molecule 1 3.0 mg/kg single IV Day0; ATR inhibitor 10 mg/kg p.o. qd; combination of both
Method: The antitumor activities of selected ADCs of the present invention were tested in the CTG-2264, osteosarcoma PDX model.
Vehicle control was saline and dosed (10 mL/kg) at Day0. The group size for each treatment group was 3. The calculation of the Tumor Growth Inhibition (TGI) was done for Day 23 after treatment start, when the mean tumor volume of the control group reached 1000 mm3 (see FIG. 11, 12).

[1] = tested on: CHP-134 (neuroblastoma) cells; assay: ADC cell killing assay (CellTiter Glo Luminescent Cell Viability assay) on CHP-134; format: cell-based, human
Method: (§1) The in vitro potency of the ADCs hu14.18-IgG1.4 (K322A)-delK-βGluc Exatecan and rituximab IgG1 βGluc Exatecan, the unconjugated antibody hu14.18-IgG1.4 (K322A)-delk and the free payload Exatecan was measured on antigen-positive human tumor cell lines CHP-134 (neuroblastoma, #ACC653, DSMZ, Braunschweig, Germany), NCI-H446 (small cell lung cancer (SCLC), #HTB-171, ATCC, Manassas, VA, USA) as well as M21 (melanoma, Scripps Research Institute, La Jolla, CA, USA) and antigen-negative human tumor cell line MDA-MB-468 (breast carcinoma, #ACC738, DSMZ, Braunschweig, Germany) using the CellTiter Glo® Luminescent Cell Viability assay (#G7573, Promega Corporation, Madison, WI, USA).
(§2) The cell lines CHP-134, NCI-H446 and MDA-MB-468 were cultured as instructed by vendor and maintained in RPMI1640 medium with GlutaMAX™ supplement (#61870-010, Gibco™, purchased from Thermo Fisher Scientific, Waltham, MA, USA), 1 mM sodium pyruvate (#11360-070, Gibco™, Thermo Fisher Scientific) and 10% fetal bovine serum (FBS) (#S0615, Sigma Aldrich, St. Louis, MO, USA). The melanoma cell line M21 was cultured in DMEM with stable L-glutamine (#41965-039, Gibco™, Thermo Fisher Scientific) and 10% FBS. […]

[2] = tested on: NCI-H446 (small cell lung cancer) cells; assay: ADC cell killing assay (CellTiter Glo Luminescent Cell Viability assay) on NCI-H446; format: cell-based, human
Method: as §1, §2

M21 (melanoma) cells = assay: ADC cell killing assay (CellTiter Glo Luminescent Cell Viability assay) on M21; format: cell-based, human
Method: as §1, §2

[3] = tested on: MDA-MB-468 (breast carcinoma) cells; assay: ADC cell killing assay (CellTiter Glo Luminescent Cell Viability assay) on MDA-MB-468; format: cell-based, human
Method: as §1, §2

[4] = cited from earlier work

Molecule: Nc1nn2cc(F)cnc2c1C(=O)Nc1cncc(F)c1N1CCC(C(=O)N2CCN(C3COC3)CC2)CC1 [ATR inhibitor]
- tumor growth inhibition (TGI) (CTG-2264 tumors): 67%

Molecule: CC[C@@]1(O)C(=O)OCc2c1cc1n(c2=O)Cc2c-1nc1cc(F)c(C)c3c1c2[C@@H](N)CC3 [Exatecan, (1S,9S)-1-Amino-9-ethyl-5-fluoro-9-hydroxy-4-methyl-1,2,3,9,12,15-hexahydro-10H,13H-benzo[de]pyrano[3′,4′:6,7]indolizino[1,2-b]quinoline-10,13-dione]
- Span (%) ([1]; CHP-134, % efficacy at highest test concentration (100 nM for Molecule 1,2,4; 1 μM for Molecule 3), geomean): 100%
- IC50 ([1]; Homo sapiens, CHP-134, 144 h): 0.2 nM
- IC50 ([2]; Homo sapiens, NCI-H446, 144 h): 0.07 nM
- Span (%) ([2]; NCI-H446, % efficacy at highest test concentration (100 nM for Molecule 1,2,4; 1 μM for Molecule 3), geomean): 96%
- IC50 (M21 (melanoma) cells; Homo sapiens, M21, 144 h): 1.1 nM
- Span (%) (M21 (melanoma) cells; M21, % efficacy at highest test concentration (100 nM for Molecule 1,2,4; 1 μM for Molecule 3), geomean): 95%
- IC50 ([3]; Homo sapiens, MDA-MB-468, 144 h): 0.3 nM
- Span (%) ([3]; MDA-MB-468, % efficacy at highest test concentration (100 nM for Molecule 1,2,4; 1 μM for Molecule 3), geomean): 100%

B1: Dinutaximab beta (antibody, chains of the INN, looked up, V domains shown)
VH: EVQLLQSGPELEKPGASVMISCKASGSSFTGYNMNWVRQNIGKSLEWIGAIDPYYGGTSYNQKFKGRATLTVDKSSSTAYMHLKSLTSEDSAVYYCVSGMEYWGQGTSVTVSS
VL: EIVMTQSPATLSVSPGERATLSCRSSQSLVHRNGNTYLHWYLQKPGQSPKLLIHKVSNRFSGVPDRFSGSGSGTDFTLKISRVEAEDLGVYFCSQSTHVPPLTFGAGTKLELK
- clinical signs ([4]; cynomolgus monkeys, EMA/263814/2017): clinical signs that were interpreted as acute pain
- histopathology of peripheral nervous system ([4]; infused 4 h/day for 10 consecutive days, 30 and 100 mg/m^2/day): histopathological changes were noted on day 15 in the peripheral nerves and visceral nervous innervation of organs

— patent publication US20250186603A1, “ANTI-GD2 ANTIBODIES, IMMUNOCONJUGATES AND THERAPEUTIC USES THEREOF” (Merck Patent GmbH, priority 2022, published 2025)
